{"source": "patent US8030547B2", "about": "“Gene coding for acetolactate synthase” (priority 2002, dated 2011)", "type_in_all_cases": "biochemical, rice (Oryza sativa var. Kinmaze)", "key": {"[1]": {"molecular_target": "T1, GST fusion S627I mutant ALS protein (Oryza sativa subsp. japonica, UniProt Q6K2E8, S627I)", "T1 construct": "an expression vector having the full-length wild type ALS cDNA incorporated into the Eco RI site of pGEX-2T; made in house; host or cells: E. coli JM109, pGEX 2T(ALS-S627I mutant); crude supernatant", "T1 sequence (Q6K2E8 44-644 S627I)": "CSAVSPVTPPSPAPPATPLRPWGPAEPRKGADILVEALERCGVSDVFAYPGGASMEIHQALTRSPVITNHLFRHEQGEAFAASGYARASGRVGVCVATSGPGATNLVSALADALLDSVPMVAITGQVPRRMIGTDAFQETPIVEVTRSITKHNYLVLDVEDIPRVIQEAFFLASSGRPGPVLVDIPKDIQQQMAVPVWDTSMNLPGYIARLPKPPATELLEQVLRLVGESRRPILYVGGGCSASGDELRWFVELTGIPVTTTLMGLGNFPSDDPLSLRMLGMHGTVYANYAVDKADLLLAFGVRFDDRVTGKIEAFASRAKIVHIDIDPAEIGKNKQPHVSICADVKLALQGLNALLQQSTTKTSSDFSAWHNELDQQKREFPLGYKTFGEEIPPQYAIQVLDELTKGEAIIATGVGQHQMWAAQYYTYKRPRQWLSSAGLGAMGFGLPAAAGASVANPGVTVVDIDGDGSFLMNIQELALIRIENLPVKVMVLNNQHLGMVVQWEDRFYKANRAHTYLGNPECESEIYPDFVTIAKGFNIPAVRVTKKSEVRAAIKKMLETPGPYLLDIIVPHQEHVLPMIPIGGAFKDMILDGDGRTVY", "assay": "Herbicide sensitivity of ALS protein expressed in E. coli (crude enzyme solution), S627I", "details": "for RS ratio: S627I mutant vs wild type", "procedure": "(§1) ALS activity resulting from the mutant ALS protein contained in the eluted fractions apportioned into each test tube for apportioning was measured as follows. A reaction solution to be used in a measurement reaction was prepared by mixing an eluted fraction to be measured with a solution comprising 20 mM sodium pyruvate, 0.5 mM TPP, 0.5 mM MgCl2, 10 μM FAD and 20 mM potassium phosphate buffer (pH 7.5). One ml of this reaction solution was used. After the eluted fraction to be measured was added, the measurement reaction was performed at 30° C. for 40 to 60 minutes. Then, the reaction was stopped by addition of 0.1 ml of 6N sulfuric acid (or 0.25 N sodium hydroxide).\n(§2) After the reaction was stopped, the reaction solution was incubated at 60° C. for 10 minutes, thereby converting acetolactate contained in the reaction solution to acetoin.\n(§3) Then, to quantify acetoin contained in the reaction solution, 1 ml of 0.5% (w/v) creatine and 1 ml of 5% (w/v) α-naphthol dissolved in 2.5 N sodium hydroxide was added to the reaction solution, followed by incubation at 37° C. for 10 minutes. Acetoin was then quantified by color comparison of the absorbance (at 525 nm) of the reaction solution, thereby evaluating ALS activity. In addition, since the reaction solution contained a small amount of sodium pyruvate, reaction time 0 was used as control.\n(§4) E. coli transformed with pGEX-2T(ALS-wild) constructed in Example 3(5), E. coli transformed with pGEX-2T(ALS-W548L mutant) constructed in Example 5, E. coli transformed with pGEX-2T(ALS-S627I mutant) constructed in Example 5, E. coli transformed with pGEX-2T(ALS P171H mutant) constructed in Example 6, E. coli transformed with pGEX-2T(ALS R172S mutant) constructed in Example 6, E. coli transformed with pGEX-2T(ALS P171H, R172S mutant) constructed in Example 7, E. coli transformed with pGEX-2T(ALS-P171H, W548L mutant) constructed in Example 8, E. coli transformed with pGEX-2T(ALS-P171H, S627I mutant) constructed in Example 8, and E. coli transformed with pGEX-2T(ALS-P171H, W548L, S627I mutant) constructed in Example 9 were respectively shake-cultured (pre-culture) at 27° C. in 2 ml of LB liquid medium containing ampicillin. These types of E. coli were respectively cultured in 250 ml of LB liquid medium containing ampicillin using 1 ml of the pre-culture solution. After culturing overnight, 1 mM IPTG was added to the media, and then culturing was performed for a further 3 to 4 hours, so that the expression of GST fusion protein was induced. In addition, the cells were stored at −80° C. after washing.\n(§5) Preparation and purification of ALS from E. coli were performed by the following method. First, the pellet of the transformant E. coli stored at −80° C. was suspended in ALS extraction buffer (potassium phosphate buffer (pH 7.5) containing 30% glycerol and 0.5 mM MgCl2). Specifically, 2.5 ml of the buffer was added to the pellet obtained from 50 ml of the culture solution. The suspension was subjected to ultrasonication (Heat Systems-Ultrasonics, Sonicator W-225R, micro chip, output control 8, interval of approximately 1 second, twice (40 seconds each)), and subjected to centrifugation at 15000×g, 4° C. for 20 minutes, thereby obtaining the supernatant as a crude enzyme solution.\n(§6) Herbicide sensitivity of the wild type ALS protein and that of mutant ALS protein were examined using the 9 types of crude enzyme solutions obtained in Example 10. Herbicide sensitivity test was performed according to procedures almost the same as those in Example 2. However, in this example, reaction temperature was 37° C., reaction time was 30 minutes, and 10 mM valine was added to the reaction solution to inhibit ALS activity derived from E. coli. Further, three types of herbicides, bispyribac-sodium, pyrithiobac-sodium, and pyriminobac, were used as PC herbicides; chlorsulfuron was used as a sulfonylurea herbicide; and imazaquin was used as an imidazolinon herbicide. […]"}, "[2]": {"molecular_target": "T2, GST fusion R172S mutant ALS protein (Oryza sativa subsp. japonica, UniProt Q6K2E8, R172S)", "T2 construct": "an expression vector having the full-length wild type ALS cDNA incorporated into the Eco RI site of pGEX-2T; made in house; host or cells: E. coli JM109, pGEX-2T(ALS R172S mutant); crude supernatant", "T2 sequence (Q6K2E8 44-644 R172S)": "as the sequence (Q6K2E8 44-644 S627I) above, with R129S, I584S counted along it", "assay": "Herbicide sensitivity of ALS protein expressed in E. coli (crude enzyme solution), R172S", "details": "for RS ratio: R172S mutant vs wild type", "procedure": "as §1, §2, §3, §4, §5, §6"}, "[3]": {"molecular_target": "T3, GST fusion P171H/W548L/S627I mutant ALS protein (Oryza sativa subsp. japonica, UniProt Q6K2E8, P171H/S627I/W548L)", "T3 construct": "made in house; host or cells: E. coli, pGEX-2T(ALS-P171H, W548L, S627I mutant); crude supernatant", "T3 sequence (Q6K2E8 44-644 P171H/W548L/S627I)": "as the sequence (Q6K2E8 44-644 S627I) above, with P128H, W505L counted along it", "assay": "Herbicide sensitivity of ALS protein expressed in E. coli (crude enzyme solution), P171H/W548L/S627I", "details": "for RS ratio/ predicted RS ratio / Predicted RS ratio: P171H/W548L/S627I mutant; for Predicted RS ratio: product of RS ratios of the 1-point mutants; for RS ratio: P171H/W548L/S627I mutant vs wild type", "procedure": "as §1, §2, §3, §4, §5, §6"}, "[4]": {"details": "read-out: inhibition % at the highest concentration among the concentrations tested"}}, "note": "“And” between values parts separate entries of the source, which are not always exact repeats. Equal entries are not always repeated.", "data": [{"smiles": "COc1nc(C)nc(NC(=O)NS(=O)(=O)c2ccccc2Cl)n1", "note": "[chlorsulfuron]", "values": [{"measurement": "IC50", "setting": "[1]", "value": 31, "unit": "nM"}, {"measurement": "RS ratio", "setting": "[1]", "value": 2.4}, {"measurement": "IC50", "setting": "[2]", "value": 11, "unit": "nM"}, {"measurement": "RS ratio", "setting": "[2]", "value": 0.85}, {"measurement": "RS ratio/ predicted RS ratio", "setting": "[3]", "value": ">0.24"}, {"measurement": "Predicted RS ratio", "setting": "[3]", "value": 160000}, {"measurement": "inhibition at 500 µM", "setting": "[3]; [4]", "value": 30, "unit": "%"}]}, {"smiles": "COc1cc(OC)nc(Oc2cccc(Oc3nc(OC)cc(OC)n3)c2C(=O)O)n1", "note": "[bispyribac-sodium]", "values": [{"measurement": "IC50", "setting": "[1]", "value": 260, "unit": "nM"}, {"measurement": "RS ratio", "setting": "[1]", "value": 41}, {"measurement": "IC50", "setting": "[2]", "value": 6.2, "unit": "nM"}, {"measurement": "RS ratio", "setting": "[2]", "value": 0.98}, {"measurement": "RS ratio/ predicted RS ratio", "setting": "[3]", "value": ">0.084"}, {"measurement": "RS ratio", "setting": "[3]", "value": ">16000"}, {"measurement": "Predicted RS ratio", "setting": "[3]", "value": 190000}, {"measurement": "inhibition at 100 µM", "setting": "[3]; [4]", "value": 1.1, "unit": "%"}]}, {"smiles": "CC(C)C1(C)N=C(c2nc3ccccc3cc2C(=O)O)NC1=O", "note": "(stereo not drawn) [imazaquin]", "values": [{"measurement": "IC50", "setting": "[1]", "value": 15000, "unit": "nM"}, {"measurement": "IC50", "setting": "[2]", "value": 2300, "unit": "nM"}, {"measurement": "RS ratio", "setting": "[2]", "value": "0.98 and 1"}, {"measurement": "RS ratio", "setting": "[3]", "value": ">45"}, {"measurement": "Predicted RS ratio", "setting": "[3]", "value": ">460"}, {"measurement": "inhibition at 100 µM", "setting": "[3]; [4]", "value": 15, "unit": "%"}]}]}
